Reference: US12185774B2, “Methods and devices for preventing viral transmission” (priority 2020, dated 2025)

Columns and labels:
[1] = system: HUVEC cells; assay: Electric-field-induced reorientation of endothelial cells (orientation index Oi); type: cell-based; conditions: for orientation response in EF (in words): inhibitors 50 μM (latrunculin 50 nM), 1 hour before and during EF
Procedure: A series of images was taken with an image analyser immediately before EF exposure and at 4, 8 and 24 hours of EF exposure. Cell orientation was quantified as an orientation index (Oi), which is defined as Oi=cos2 (a), where a is the angle formed by the long axis of a cell with a line drawn perpendicular to the field lines. A cell with its long axis parallel to the vector of the EF will have an Oi of −1, and a cell with its long axis exactly perpendicular to the EF vector will have an Oi of +1. A randomly oriented population of cells will have an average Oi {defined as [Σn cos2(α)]+n} of 0. The significance of this two-dimensional orientation distribution against randomness was calculated using Rayleigh's distribution. A long:short axis ratio was calculated for assessment of elongation.
Cell alignment was quantified using an orientation index Oi=cos2(α), where a is the angle formed between the long axis of a cell and a line drawn perpendicular to the field lines. In cells oriented perpendicular to the field vector, the Oi is +1, cells parallel to the field vector give an Oi of −1 and random orientation gives an Oi of 0.

[2] = system: HUVEC cells; assay: Electric-field-induced elongation of endothelial cells (long:short axis ratio); type: cell-based
Procedure: HUVEC cells were seeded in a trough formed by two parallel (1 cm apart) strips of glass coverslip (No. 1, length of 22 mm) fixed to the base of the dish with silicone grease. Scratch lines were made perpendicular to the long axis of the chamber with a fine sterile needle and used as reference marks for directed cell migration. Cells were incubated for 24-48 hours (37° C., 5% CO2) before a roof coverslip was applied and sealed with silicone grease. The final dimensions of the chamber, through which current was passed, were 22×10×0.2 mm. Agar-salt bridges not less than 15 cm long were used to connect silver/silver-chloride electrodes in beakers of Steinberg's solution (58 mM NaCl, 0.67 mM KCl, 0.44 mM Ca(NO3)2, 1.3 mM MgSO4, 4.6 mM Trizma base, pH 7.8-8.0), to pools of excess culture medium at either side of the chamber. Field strengths were measured directly at the beginning of, the end of and during each experiment. No fluctuations in field strength were observed. […] (50 μM), the Rho kinase inhibitor Y27632 (50 μM), both Akt and Rho kinase inhibitors (10 μM each) or latrunculin (50 nM) for 1 hour before EF stimulation. The same concentration of drug was present during EF exposure in a CO2 incubator.
A series of images was taken with an image analyser immediately before EF exposure and at 4, 8 and 24 hours of EF exposure. Cell orientation was quantified as an orientation index (Oi), which is defined as Oi=cos2 (a), where a is the angle formed by the long axis of a cell with a line drawn […] to the field lines. A cell with its long axis parallel to the vector of the EF will have an Oi of −1, and a cell with its long axis exactly perpendicular to the EF vector will have an Oi of +1. […] The significance of this two-dimensional orientation distribution against randomness was calculated using Rayleigh's distribution. A long:short axis ratio was calculated for assessment of elongation.
HUVEC cells elongated dramatically in an EF. […] We quantified the elongation of the cells using a long:short axis ratio. […]

[3] = system: HaCaT human keratinocytes; assay: Scratch assay, HaCaT keratinocyte migration, Example 3; conditions: catalase over-expression; 5 mM N-acetylcysteine 1 h pretreatment; 50 nM IGF-1R inhibitor
Procedure: Cell culture—Immortalized HaCaT human keratinocytes were grown in Dulbecco's low-glucose modified Eagle's medium (Life Technologies, Gaithersburg, MD, U.S.A.) supplemented with 10% fetal bovine serum, 100 U/ml penicillin, and 100 g/ml streptomycin. The cells were maintained in a standard culture incubator with humidified air containing 5% CO2 at 37° C.
Scratch assay—A cell migration assay was performed using culture inserts (IBIDI®, Verona, WI) according to the manufacturer's instructions. Cell migration was measured using time-lapse phase-contrast microscopy following withdrawal of the insert. Images were analyzed using the AxioVision Rel 4.8 software.
N-Acetyl Cysteine Treatment—Cells were pretreated with 5 mM of the thiol antioxidant N-acetylcysteine (Sigma) for 1 h before start of the scratch assay.
IGF-1R inhibition—When applicable, cells were preincubated with 50 nM IGF-1R inhibitor, picropodophyllin (Calbiochem, MA) just prior to the Scratch Assay.
Catalase gene delivery—HaCaT cells were transfected with 2.3×10^7 pfu AdCatalase or with the empty vector as control in 750 μL of media. Subsequently, 750 μL of additional media was added 4 h later and the cells were incubated for 72 h.

## COc1cc2ncnc(Nc3ccc(Cl)cc3F)c2cc1OC [VEGFR inhibitor, 4-[(4′-chloro-2′-fluoro)phenylamino]-6,7-dimethoxyquinazoline]
[1]
  orientation response in EF (in words): completely abolished the reorientation

## C/C1=C/C(=O)O[C@@H]2C[C@@H](CC[C@H](C)/C=C\C=C\CC1)O[C@@](O)([C@@H]1CSC(=O)N1)C2 [Latrunculin A]
[1]
  orientation response in EF (in words): suppressed the orientation response significantly
[2]
  long:short axis ratio / elongation response in EF-treated cells (in words): completely abolished the EF-induced elongation response

## catalase
[3]
  effect on the increased migration triggered by LLEC: attenuated the increased migration

## COc1cc([C@@H]2c3cc4c(cc3[C@H](O)[C@H]3COC(=O)[C@@H]23)OCO4)cc(OC)c1OC [IGF-1R inhibitor, picropodophyllin]
[3]
  effect on the increased migration triggered by LLEC: attenuated the increased keratinocyte migration

## C[C@@H](N)[C@H]1CC[C@H](C(=O)Nc2ccncc2)CC1 [Y27632]
[1]; value in sentence on U0126 (50 μM)
  orientation index Oi: 0.33±0.03
[2]
  long:short axis ratio / elongation response in EF-treated cells (in words): significantly decreased the long:short axis ratio

## N#CC(=C(/N)Sc1ccccc1N)/C(C#N)=C(\N)Sc1ccccc1N [U0126]
[1]
  orientation response in EF (in words): decreased the orientation to a similar extent

## 1-L-6-hydroxymethyl-chiro-inositol 2-[(R)-2-O-methyl-3-O-octadecylcarbonate] [Akt inhibitor]
[1]
  orientation response in EF (in words): significantly decreased the orientation response
[2]
  long:short axis ratio / elongation response in EF-treated cells (in words): significantly decreased the long:short axis ratio

## CC(=O)N[C@@H](CS)C(=O)O [N-Acetyl Cysteine]
[3]
  effect on the increased migration triggered by LLEC: failed to reproduce the increased migration
